Measured values: patent publication US20120142770A1, “PHARMACEUTICAL COMPOSITIONS OF HDAC INHIBITORS AND CHELATABLE METAL COMPOUNDS, AND METAL-HDAC INHIBITOR CHELATE COMPLEXES” (Merck Sharp & Dohme Corp, priority 2006, published 2012)
Converted amounts (≈) assume the structure as drawn. Where two headings read alike, the source gives them in different places.

Key:
[1] = in vivo; cited from earlier work
[2] = in vivo; conditions: female, CD1 nu/nu, mouse, ip
Experimental: To test whether the maximum tolerated dose (MTD) of vorinostat in mice can be increased with zinc supplementation, Mice (CD1 nu/nu female, 6-8 weeks old, Charles River Laboratories) are administered vehicle, 150 mg/kg (MTD) or 300 mg/kg vorinostat in vehicle (Table 11). Mice are given 0.5, 1, or 5 molar equivalents (relative to vorinostat) of zinc chloride. This corresponds to ZnCl2 doses of 38.5, 77, and 385 mg/kg for the 150 mg/kg vorinostat group.
Body weight and survival are monitored as indications of toxicity. Doses resulting in a group average body weight loss of more than 20% average will be considered non-tolerated. Likewise, doses resulting in the treatment-related death of more than 2 mice per group will be considered non-tolerated.

[3] = system: patients with cancer; conditions: cited from earlier work
[4] = system: all animal species; conditions: cited from earlier work
[5] = system: rats; conditions: rat, in vivo; cited from earlier work
[6] = Solubility of raw material (Table 1); assay type: physicochemical
Text: Table 1 summarizes the physical properties of the raw materials in the capsule.

[7] = system: dogs; conditions: dog, in vivo; cited from earlier work

| Compound | side effects [1] | MTD [2] | Clinical adverse experiences or side effects [3] | Preclinical toxicity [4] | Preclinical toxicity [5] | solubility ([6]; 2% CIP100 aqueous solution, aqueous with cosolvent or surfactant or cyclodextrin, 2% CIP100 aqueous soln., read-out: Solubility in 2% CIP100 aqueous soln.) | solubility ([6]; 2% SD-20 aqueous solution, aqueous with cosolvent or surfactant or cyclodextrin, 2% SD-20 aqueous soln., read-out: Solubility in 2% SD-20 aqueous soln.) | solubility ([6]; in water, read-out: Solubility in Water) | solubility ([6]; organic solvent or mixture, in methanol, read-out: Solubility in Methanol) | Preclinical toxicity [7] |
| --- | --- | --- | --- | --- | --- | --- | --- | --- | --- | --- |
| CC(=O)N(O)CCCCCNC(=O)CCC(=O)N(O)CCCCCNC(=O)CCC(=O)N(O)CCCCCN [Desferrioxamine] | fatigue, bone marrow atrophy, thymic atrophy and neutropenia |  |  |  |  |  |  |  |  |  |
| O=C(CCCCCCC(=O)Nc1ccccc1)NO [Suberoylanilide hydroxamic acid (SAHA), N-hydroxy-N′-phenyloctanediamide] |  | 150 mg/kg | diarrhea, fatigue, nausea, thrombocytopenia, anorexia, dysgeusia, weight decrease, muscle spasms, alopecia, anemia, blood creatinine increase, vomiting, chills | weight loss or inappetence, immune suppression (leucopenia, lymphopenia, thymic atrophy) | thrombocytopenia | 11.3 mg/mL (≈ 42.8 mM) | 0.085 mg/mL (≈ 0.322 mM) | < 0.1 mg/mL | 42 mg/mL (≈ 159 mM) | gastrointestinal toxicity (mucosal atrophy, acute inflammation, necrosis, multiple lesions), dehydration, electrolyte loss, testicular atrophy |
| CC(=O)NO [Lithostat, acetohydroxamic acid] | nausea, vomiting, anorexia, fatigue, malaise, reticulocytosis, anemia, thrombocytopenia, leukopenia and headache |  |  |  |  |  |  |  |  |  |
